In patent publication US20170234860A1, “SEQUENCE AND CHIRAL SELECTIVITY OF DNA-DRUG INTERACTIONS REVEALED BY FORCE SPECTROSCOPY” (UNIVERSITY OF HOUSTON SYSTEM, priority 2014, published 2017):

What was measured:
[1] = tested on: DNA duplex 5′-CGCGAAAAACGCG-3′; test: FIRMS binding force of groove-binding drugs with DNA; conditions: for binding force of DNA with drug: DNA alone 59 pN
Description: (§1) Some embodiments of the method of using a differential binding force to quantify the efficiency of a drug molecule to a receptor comprises a process wherein one strand of the DNA duplex is immobilized on a surface, while the other is labeled with a magnetic particle. The binding forces of the DNA duplex are measured in the absence and presence of the drug molecule, denoted as F1 and F2, respectively. The differential binding force, F2-F1, characterizes the influence of the drug-DNA binding on the stability of the DNA. The binding forces are obtained using the FIRMS technique, depicted in FIG. 1.
The method of differential binding force can also be used to quantify a different binding mode of DNA-drug interactions. We chose two groove-binding drugs, netropsin and berenil. The groove-binding interaction is different from the intercalation interaction of daunomycin and THP. Shown in FIG. 6 are the binding forces of DNA alone, DNA with netropsin, and DNA with berenil, with values of 59, 63, and 73 pN, respectively. The DNA sequence was 5′-CGCGAAAAACGCG-3′ (SEQ. 5). The binding forces yield differential binding force of 4 pN for netropsin and 14 pN for berenil.

[2] = tested on: DNA1 (5′-CCC AAT CGA CCC-3′ with complementary strand 5′-GGG TCG ATT GGG-3′); test: FIRMS binding force of drug with DNA1
Description: as §1
(§2) Magnetic particles M280 were used to label one strand of the DNA duplexes as previously characterized.^16] After initial magnetization by a permanent magnet, the magnetic signal of the particles were detected by an atomic magnetometer, with a sensitivity of 200 fT/(Hz)^1/2. Sample wells (4×2×1 mm^3) with a biotin-coated bottom surface were used to immobilize the other strand of the DNA duplexes. […]
(§3) DNA Intercalation is widely considered as its binding mode, although minor groove binding has also been discussed,^[24] however, the specificity has previously not been quantified by binding strength. […] As a control experiment the differential binding force of daunomycin with a different DNA duplex, DNA2, with sequence 5′-CCC GGG TTT CCC-3′ and its complementary strand was measured.

[3] = tested on: DNA2 (5′-CCC GGG TTT CCC-3′ and its complementary strand); test: FIRMS binding force of drug with DNA2
Description: as §1, §2, §3

[4] = tested on: DNA duplex 5′-CCC GGG TTT CCC-3′ / 3′-GGG CCC AAT GGG-5′ containing a T-T pair; test: FIRMS binding force of the T-Hg-T system (DNA duplex with T-T pair)
Description: as §1
Magnetic particles M280 were used to label one strand of the DNA duplexes as previously characterized.^16] After initial magnetization by a permanent magnet, the magnetic signal of the particles were detected by an atomic magnetometer, with a sensitivity of 200 fT/(Hz)^1/2. Sample wells (4×2×1 mm^3) with a biotin-coated bottom surface were used to immobilize the other strand of the DNA duplexes. Mechanical forces were applied using a centrifuge (Eppendorf 5417R).
The sample well, with dimensions of 4×2×1 mm^3 (L×W×D), was coated with biotin on the bottom surface. An aqueous solution of 0.625 mg/mL streptavidin was loaded into the sample well and incubated for 1 hr. Then the sample well was rinsed three times with a buffer solution as described below. […]

Cn1cc(NC(=O)c2cc(NC(=O)CN=C(N)N)cn2C)cc1C(=O)NCCC(=N)N [netropsin]
differential binding force (F2-F1) [1]: 4 pN
binding force of DNA with drug [1]: 63 pN

CC(=O)NCC(=O)O.CC(=O)NCC(=O)O.N=C(N)c1ccc(N=NNc2ccc(C(=N)N)cc2)cc1 [berenil]
differential binding force (F2-F1) [1]: 14 pN
binding force of DNA with drug [1]: 73 pN

COc1cccc2c1C(=O)c1c(O)c3c(c(O)c1C2=O)C[C@@](O)(C(C)=O)C[C@@H]3O[C@H]1C[C@H](N)[C@H](O)[C@H](C)O1 [daunomycin]
differential binding force (F2-F1) [2]: 12 pN
binding force of DNA1 with drug ([2]; DNA alone 45 pN (daunomycin, TE buffer) or 44 pN (THP, BPES buffer)): 57 pN
differential binding force (F2-F1) [3]: no significant force difference
binding force of DNA2 with drug ([3]; DNA alone 51 pN): 52 pN

[Hg+2] [Hg]
binding force of the DNA duplex upon binding ([4]; DNA alone 40 pN, HEPES buffer pH 7.6): 54 pN
differential binding force (F2-F1) ([4]; increase over DNA alone): 14 pN
